Legend:
[1] = system: human saphenous vein (HSV); test: Human saphenous vein organ culture model of intimal hyperplasia
Procedure: Dc-identified, discarded segments of human saphenous vein (HSV) were collected from consented patients undergoing coronary artery or peripheral vascular bypass surgeries. HSV segments were stored in a saline solution until the end of the surgical procedure, at which time they were placed in cold transplant harvest buffer (100 mM potassium lactobionate, 25 mM KH2PO4, 5 mM MgSO4, 30 mM Raffinose, 5 mM Adenosine, 3 mM Glutathione, 1 mM Allopurinol, 50 g/L Hydroxyethyl starch, pH 7.4). The vessels were used within 24 hours of harvest. Using sterile technique, HSV segments were transferred to a 60-mm Petri dish under a sterile hood. The edges (0.5 mm) of each segment were removed with a blade and excess adventitial tissue and fat removed with minimal manipulation. […]
After viability was determined in the muscle bath, additional rings were cut and placed in 8-well chamber slides and maintained in RPMI 1640 medium supplemented with 30% FBS, 1% L-glutamine and 1% penicillin/streptomycin for 14 days at 37° C. in an atmosphere of 5% CO2 in air. […]
After 14 days of organ culture, vein segments were fixed in 0.5 mL of 10% formalin at 37° C. for 30 minutes and embedded in paraffin for sectioning. […] Intimal and medial thickening was measured for each section at 5× magnification with the microscope's computerized image analysis system. […]

THP-1 cells = test: TNF-α and IL-1β production in PMA/LPS-treated THP-1 cells (ELISA); format: cell-based, human
Procedure: The ability of MMI-0100 ([…]; SEQ ID NO: 1) to inhibit the production of inflammatory cytokines (TNF-α and IL-1β) in vitro was examined using THP-1 cells. Briefly, THP-1 cells were activated with PMA for 24 hours, and treated subsequently with 10 μg of LPS. The amount of inflammatory cytokines (TNF-α and IL-1β, pg/ml) produced in the medium in the presence or absence of increasing concentrations (1 μM, 3 μM, 10 μM, and 30 μM) of MMI-0100 ([…]; SEQ ID NO: 1) was determined by cytokine specific enzyme-linked immunosorbent assay (ELISA). Analysis of inflammatory cytokines (TNF-α and IL-1β) was performed with cytokine-specific ELISA kit (PeproTech, Inc., Rocky Hill, N.J.). The cytokine-specific ELISA employs highly-purified anti-cytokine antibodies (capture antibodies) that are noncovalently adsorbed (“coated”) onto plastic microwell plates. After washings, the immobilized antibodies capture specifically soluble cytokine proteins present in samples applied to the plate. After washing away unbound material, the captured cytokine proteins are detected by biotin-conjugated anti-cytokine antibodies (detection antibodies) followed by an enzyme-labeled avidin or streptavidin reporter. Following addition of a chromogenic (color-developing) substrate-containing solution, the level of colored product generated by the bound, enzyme-linked, detection reagents can be measured spectrophotometrically using an ELISA-plate reader at an appropriate optical density.
In order to prepare plates for ELISA, capture antibodies (anti-TNF-α or anti-IL-1β antibodies) were diluted with PBS to a concentration of 1 μg/ml. 100 μl of each diluted antibody was added immediately to each well of the ELISA plate. […]
The standard was diluted from 2 ng/ml to zero in diluent, and 100 μl of the standard or sample was added immediately to each well in triplicate and incubated at room temperature for at least 2 hours. […] The level of colored product generated by the bound, enzyme-linked, detection reagents was measured spectrophotometrically using an ELISA-plate reader at an appropriate optical density.

[2] = system: mouse lung endothelial cells (MLEC); test: NO analysis (nitrite chemiluminescence); format: cell-based; details: physiological doses; 24 hours
Procedure: To measure nitric oxide (NO) production, conditioned medium from mouse lung endothelial cells (MLEC) was examined at 24 hours after treatment with MMI-0100 ([…]; SEQ ID NO: 1). The medium was processed for the measurement of nitrite (NO2) by a NO-specific chemiluminescence analyzer (Sievers) as previously described (Muto, A. et al., J. Exp. Med., 2011, 208(3): 561-575, incorporated herein by reference in its entirety.).

YARAAARQARAKALARQLGVAA [MMI-0100]
mean intimal thickness ([1]; 10 μM MMI-0100, 14 days culture, 30% FBS): 14 μm
intima:media (I:M) ratio ([1]; 100 μM MMI-0100, 14 days, 30% serum): greater reduction
IL-1β level in the medium (THP-1 cells; 30 μM MMI-0100, PMA then LPS (stimulated control about 450 pg/ml)): about 100 pg/ml
TNF-α level in the medium (THP-1 cells; 30 μM MMI-0100, PMA then LPS (stimulated control about 1000 pg/ml)): about 300 pg/ml
production of pro-inflammatory cytokines (TNF-α and IL-1β) (THP-1 cells; 1, 3, 10, 30 μM MMI-0100): dose-dependent manner
Nitric oxide (NO) production [2]: not suppressed, and was even enhanced

From US20130115256A1, “METHODS FOR TREATING OR PREVENTING VASCULAR GRAFT FAILURE” (priority 2010, published 2013)
